Measurements: patent US12161115B2, “Herbicidal compounds” (SYNGENTA CROP PROTECTION AG, priority 2019, dated 2024)

Assays:
Type in all cases: in vivo
barley crop plants = experiment: Crop phytotoxicity comparison, post-emergence; conditions: post-emergence
Protocol: (§1) Seeds of a variety of test species are sown in standard soil in pots (Lolium perenne (LOLPE), Setaria faberi (SETFA), Alopecurus myosuroides (ALOMY), Echinochloa crus-galli (ECHCG), Avena fatua (AVEFA)). After cultivation for one day (pre-emergence) or after 8 days cultivation (post-emergence) under controlled conditions in a glasshouse (at 24/16° C., day/night; 14 hours light; 65% humidity), the plants are sprayed with an aqueous spray solution derived from the formulation of the technical active ingredient in acetone/water (50:50) solution containing 0.5% Tween 20 (polyoxyethelyene sorbitan monolaurate, CAS RN 9005-64-5). Compounds are applied at 250 g/h. The test plants are then grown in a glasshouse under controlled conditions in a glasshouse (at 24/16° C., day/night; 14 hours light; 65% humidity) and watered twice daily. After 13 days for pre and post-emergence, the test is evaluated for the percentage damage caused to the plant. The biological activities are shown in the following table on a five point scale (5=80-100%; 4=60-79%; 3=40-59%; 2=20-39%; 1=0-19%). NT=not tested.
(§2) Using procedures outlines above, wheat and barley crop plants are treated, post-emergence with compounds A1, A3 or A8 of the present invention or comparator compound C1 (Compound A-38 from WO2014/096289) at the application rates indicated. The compounds were also applied in conjunction with the safener compound cloquintocet-mexyl (CQC) at 50 g/ha.

wheat crop plants = experiment: Crop phytotoxicity comparison, post-emergence; conditions: post-emergence
Protocol: as §1, §2

Avena fatua (AVEFA) [1] = experiment: Pre-emergence herbicidal glasshouse test; conditions: 250 g/Ha, evaluated after 13 days
Protocol: as §1

Lolium perenne (LOLPE) [2] = experiment: Pre-emergence herbicidal glasshouse test; conditions: 250 g/Ha, evaluated after 13 days
Protocol: as §1

Setaria faberi (SETFA) [3] = experiment: Pre-emergence herbicidal glasshouse test; conditions: 250 g/Ha, evaluated after 13 days
Protocol: as §1

[4] = test system: Alopecurus myosuroides (ALOMY); experiment: Pre-emergence herbicidal glasshouse test; conditions: 250 g/Ha, evaluated after 13 days
Protocol: as §1

[5] = test system: Echinochloa crus-galli (ECHCG); experiment: Pre-emergence herbicidal glasshouse test; conditions: 250 g/Ha, evaluated after 13 days
Protocol: as §1

Avena fatua (AVEFA) [6] = experiment: Post-emergence herbicidal glasshouse test; conditions: 250 g/Ha, evaluated after 13 days
Protocol: as §1

Lolium perenne (LOLPE) [7] = experiment: Post-emergence herbicidal glasshouse test; conditions: 250 g/Ha, evaluated after 13 days
Protocol: as §1

Setaria faberi (SETFA) [8] = experiment: Post-emergence herbicidal glasshouse test; conditions: 250 g/Ha, evaluated after 13 days
Protocol: as §1

[9] = test system: Alopecurus myosuroides (ALOMY); experiment: Post-emergence herbicidal glasshouse test; conditions: 250 g/Ha, evaluated after 13 days
Protocol: as §1

[10] = test system: Echinochloa crus-galli (ECHCG); experiment: Post-emergence herbicidal glasshouse test; conditions: 250 g/Ha, evaluated after 13 days
Protocol: as §1

Compound: CC#Cc1cc(C)c(C2C(=O)CC3(CCN(C(=O)C(C)=NN(C)C)CC3)CC2=O)c(C)c1 [Compound A8, 3-[2-(dimethylhydrazono)propanoyl]-9-(2,6-dimethyl-4-prop-1-ynyl-phenyl)-3-azaspiro[5.5]undecane-8,10-dione]
- % phytotoxicity observed, Barley (barley crop plants; 30 g/ha): 0%
- % phytotoxicity observed, Barley (barley crop plants; 60 g/ha): 0%
- damage to barley crop compared to prior art compound C1 (barley crop plants; summary of Table B3): significantly less damaging
- % phytotoxicity observed, Wheat (wheat crop plants; 30 g/ha): 0%
- % phytotoxicity observed, Wheat (wheat crop plants; 60 g/ha): 10%
- % phytotoxicity observed, Wheat (wheat crop plants; 60 g/ha + safener cloquintocet-mexyl (CQC) at 50 g/ha): 10%
- damage to wheat crop compared to prior art compound C1 (wheat crop plants; summary of Table B3): significantly less damaging
- percentage damage caused to the plant, five point scale, AVEFA (Avena fatua (AVEFA) [1]): 5 (5=80-100%)
- percentage damage caused to the plant, five point scale, LOLPE (Lolium perenne (LOLPE) [2]): 5 (5=80-100%)
- percentage damage caused to the plant, five point scale, SETFA (Setaria faberi (SETFA) [3]): 5 (5=80-100%)
- percentage damage caused to the plant, five point scale, ALOMY [4]: 5 (5=80-100%)
- percentage damage caused to the plant, five point scale, ECHCG [5]: 5 (5=80-100%)
- percentage damage caused to the plant, five point scale, AVEFA (Avena fatua (AVEFA) [6]): 5 (5=80-100%)
- percentage damage caused to the plant, five point scale, LOLPE (Lolium perenne (LOLPE) [7]): 5 (5=80-100%)
- percentage damage caused to the plant, five point scale, SETFA (Setaria faberi (SETFA) [8]): 5 (5=80-100%)
- percentage damage caused to the plant, five point scale, ALOMY [9]: 5 (5=80-100%)
- percentage damage caused to the plant, five point scale, ECHCG [10]: 5 (5=80-100%)
